Laboratory results reported in ChEMBL document CHEMBL4265965, “Dichloroacetophenones targeting at pyruvate dehydrogenase kinase 1 with improved selectivity and antiproliferative activity: Synthesis and structure-activity relationships” (Bioorg Med Chem Lett, 2018).
Activity calls are given as the source filed them. The rule behind the calls is not given here.

How the values were obtained:
Assay type in all cases: functional
A549 [1] = assay: Antiproliferative activity against human A549 cells assessed as inhibition of cell proliferation at 2 uM after 72 hrs by MTT assay relative to control; conditions: for inhibition at 2 µM: A549, 72 h
NCI-H1650 [2] = assay: Antiproliferative activity against human NCI-H1650 cells assessed as inhibition of cell proliferation at 2 uM after 72 hrs by MTT assay relative to control; conditions: for inhibition at 2 µM: NCI-H1650, 72 h
NCI-H1650 [3] = assay: Antiproliferative activity against human NCI-H1650 cells assessed as inhibition of cell proliferation at 12 uM after 72 hrs by MTT assay relative to control; conditions: NCI-H1650, 72 h
A549 [4] = assay: Antiproliferative activity against human A549 cells assessed as inhibition of cell proliferation at 12 uM after 72 hrs by MTT assay relative to control; conditions: A549, 72 h
NCI-H1650 [5] = assay: Antiproliferative activity against human NCI-H1650 cells assessed as inhibition of cell proliferation at 6 uM after 72 hrs by MTT assay relative to control; conditions: for inhibition at 6 µM: NCI-H1650, 72 h
NCI-H1975 [6] = assay: Antiproliferative activity against human NCI-H1975 cells assessed as inhibition of cell proliferation at 6 uM after 72 hrs by MTT assay relative to control; conditions: for inhibition at 6 µM: NCI-H1975, 72 h
NCI-H1975 [7] = assay: Antiproliferative activity against human NCI-H1975 cells assessed as inhibition of cell proliferation at 2 uM after 72 hrs by MTT assay relative to control; conditions: for inhibition at 2 µM: NCI-H1975, 72 h
A549 [8] = assay: Antiproliferative activity against human A549 cells assessed as inhibition of cell proliferation at 6 uM after 72 hrs by MTT assay relative to control; conditions: for inhibition at 6 µM: A549, 72 h
NCI-H1975 [9] = assay: Antiproliferative activity against human NCI-H1975 cells assessed as inhibition of cell proliferation at 12 uM after 72 hrs by MTT assay relative to control; conditions: NCI-H1975, 72 h

O=C(c1ccc(F)cc1F)C(Cl)Cl
inhibition at 2 µM (A549 [1]): 4.8% | inhibition at 2 µM (NCI-H1650 [2]): 30.8% | inhibition at 12 µM (NCI-H1650 [3]): 95.3% | inhibition at 12 µM (A549 [4]): 58.5% | inhibition at 6 µM (NCI-H1650 [5]): 65.5% | inhibition at 6 µM (NCI-H1975 [6]): 97.5% | inhibition at 2 µM (NCI-H1975 [7]): 74.3% | inhibition at 6 µM (A549 [8]): 50.1% | inhibition at 12 µM (NCI-H1975 [9]): 98.7%

O=C(c1cccc(Br)c1)C(Cl)Cl
inhibition at 2 µM (A549 [1]): 15.6% | inhibition at 2 µM (NCI-H1650 [2]): 18.1% | inhibition at 12 µM (NCI-H1650 [3]): 79.6% | inhibition at 12 µM (A549 [4]): 72% | inhibition at 6 µM (NCI-H1650 [5]): 43.6% | inhibition at 6 µM (NCI-H1975 [6]): 86.2% | inhibition at 2 µM (NCI-H1975 [7]): 44.9% | inhibition at 6 µM (A549 [8]): 24.7% | inhibition at 12 µM (NCI-H1975 [9]): 97.4%

O=C(c1ccc(Br)cc1)C(Cl)Cl
inhibition (A549 [1]): inactive | inhibition at 2 µM (NCI-H1650 [2]): 23.5% | inhibition at 12 µM (NCI-H1650 [3]): 73.4% | inhibition at 12 µM (A549 [4]): 48.8% | inhibition at 6 µM (NCI-H1650 [5]): 37.8% | inhibition at 6 µM (NCI-H1975 [6]): 67.7% | inhibition at 2 µM (NCI-H1975 [7]): 13.3% | inhibition at 6 µM (A549 [8]): 16.2% | inhibition at 12 µM (NCI-H1975 [9]): 96.1%

O=C(c1cccc([N+](=O)[O-])c1)C(Cl)Cl
inhibition at 2 µM (A549 [1]): 13.4% | inhibition at 2 µM (NCI-H1650 [2]): 25.5% | inhibition at 12 µM (NCI-H1650 [3]): 99.9% | inhibition at 12 µM (A549 [4]): 85.9% | inhibition at 6 µM (NCI-H1650 [5]): 82.1% | inhibition at 6 µM (NCI-H1975 [6]): 98.5% | inhibition at 2 µM (NCI-H1975 [7]): 62.2% | inhibition at 6 µM (A549 [8]): 44.2% | inhibition at 12 µM (NCI-H1975 [9]): 99.9%

O=C(c1ccc(Cl)cc1Cl)C(Cl)Cl
inhibition at 2 µM (A549 [1]): 1.8% | inhibition at 2 µM (NCI-H1650 [2]): 35.2% | inhibition at 12 µM (NCI-H1650 [3]): 99.8% | inhibition at 12 µM (A549 [4]): 48.4% | inhibition at 6 µM (NCI-H1650 [5]): 89% | inhibition at 6 µM (NCI-H1975 [6]): 96.9% | inhibition at 2 µM (NCI-H1975 [7]): 80.2% | inhibition at 6 µM (A549 [8]): 4.4% | inhibition at 12 µM (NCI-H1975 [9]): 99%

O=C(c1ccc(F)c([N+](=O)[O-])c1)C(Cl)Cl
inhibition at 2 µM (A549 [1]): 7% | inhibition (NCI-H1650 [2]): inactive | inhibition at 12 µM (NCI-H1650 [3]): 14.5% | inhibition at 12 µM (A549 [4]): 51.1% | inhibition (NCI-H1650 [5]): inactive | inhibition at 6 µM (NCI-H1975 [6]): 73.3% | inhibition at 2 µM (NCI-H1975 [7]): 6.5% | inhibition at 6 µM (A549 [8]): 20.4% | inhibition at 12 µM (NCI-H1975 [9]): 97.6%

O=C(c1ccc(Br)c([N+](=O)[O-])c1)C(Cl)Cl
inhibition at 2 µM (A549 [1]): 6.5% | inhibition (NCI-H1650 [2]): inactive | inhibition at 12 µM (NCI-H1650 [3]): 59.1% | inhibition at 12 µM (A549 [4]): 50.5% | inhibition (NCI-H1650 [5]): inactive | inhibition at 6 µM (NCI-H1975 [6]): 74.1% | inhibition at 2 µM (NCI-H1975 [7]): 9.1% | inhibition at 6 µM (A549 [8]): 14.1% | inhibition at 12 µM (NCI-H1975 [9]): 98.9%

O=C(c1cccc(C(F)(F)F)c1)C(Cl)Cl
inhibition at 2 µM (A549 [1]): 11% | inhibition at 2 µM (NCI-H1650 [2]): 24% | inhibition at 12 µM (NCI-H1650 [3]): 97.5% | inhibition at 12 µM (A549 [4]): 77.9% | inhibition at 6 µM (NCI-H1650 [5]): 65.9% | inhibition at 6 µM (NCI-H1975 [6]): 96.6% | inhibition at 2 µM (NCI-H1975 [7]): 45.8% | inhibition at 6 µM (A549 [8]): 28.4% | inhibition at 12 µM (NCI-H1975 [9]): 97.8%

CC(C)c1ccc(C(=O)CCl)cc1[N+](=O)[O-]
inhibition (A549 [1]): inactive | inhibition at 2 µM (NCI-H1650 [2]): 18.4% | inhibition at 12 µM (NCI-H1650 [3]): 95.7% | inhibition at 12 µM (A549 [4]): 75.6% | inhibition at 6 µM (NCI-H1650 [5]): 59.7% | inhibition at 6 µM (NCI-H1975 [6]): 50.4% | inhibition at 2 µM (NCI-H1975 [7]): 9% | inhibition at 6 µM (A549 [8]): 28.7% | inhibition at 12 µM (NCI-H1975 [9]): 99%

CC(C)c1ccc(C(=O)C(Cl)(Cl)Cl)cc1[N+](=O)[O-]
inhibition (A549 [1]): inactive | inhibition (NCI-H1650 [2]): inactive | inhibition at 12 µM (NCI-H1650 [3]): 22.6% | inhibition at 12 µM (A549 [4]): 12.5% | inhibition (NCI-H1650 [5]): inactive | inhibition (NCI-H1975 [6]): inactive | inhibition (NCI-H1975 [7]): inactive | inhibition (A549 [8]): inactive | inhibition at 12 µM (NCI-H1975 [9]): 31.2%

O=C(c1ccc(Cl)c(C(F)(F)F)c1)C(Cl)Cl
inhibition at 2 µM (A549 [1]): 27.6% | inhibition at 2 µM (NCI-H1650 [2]): 55.7% | inhibition at 12 µM (NCI-H1650 [3]): 100% | inhibition at 12 µM (A549 [4]): 94.5% | inhibition at 6 µM (NCI-H1650 [5]): 95.3% | inhibition at 6 µM (NCI-H1975 [6]): 97.6% | inhibition at 2 µM (NCI-H1975 [7]): 70.1% | inhibition at 6 µM (A549 [8]): 79.5% | inhibition at 12 µM (NCI-H1975 [9]): 98.4%

O=C(c1ccc(C(F)(F)F)cc1)C(Cl)Cl
inhibition at 2 µM (A549 [1]): 18.6% | inhibition at 2 µM (NCI-H1650 [2]): 25.8% | inhibition at 12 µM (NCI-H1650 [3]): 75.5% | inhibition at 12 µM (A549 [4]): 85.9% | inhibition at 6 µM (NCI-H1650 [5]): 49.7% | inhibition at 6 µM (NCI-H1975 [6]): 91.6% | inhibition at 2 µM (NCI-H1975 [7]): 47.8% | inhibition at 6 µM (A549 [8]): 37.1% | inhibition at 12 µM (NCI-H1975 [9]): 98.2%

O=C(c1ccc(F)cc1)C(Cl)Cl
inhibition at 2 µM (A549 [1]): 4.7% | inhibition at 2 µM (NCI-H1650 [2]): 26.5% | inhibition at 12 µM (NCI-H1650 [3]): 95.5% | inhibition at 12 µM (A549 [4]): 48.1% | inhibition at 6 µM (NCI-H1650 [5]): 62.9% | inhibition at 6 µM (NCI-H1975 [6]): 92.1% | inhibition at 2 µM (NCI-H1975 [7]): 15.4% | inhibition at 6 µM (A549 [8]): 15.5% | inhibition at 12 µM (NCI-H1975 [9]): 98.3%

Cc1cccc(C(=O)C(Cl)Cl)c1
inhibition at 2 µM (A549 [1]): 14.2% | inhibition at 2 µM (NCI-H1650 [2]): 33.3% | inhibition at 12 µM (NCI-H1650 [3]): 96.8% | inhibition at 12 µM (A549 [4]): 91.3% | inhibition at 6 µM (NCI-H1650 [5]): 79.9% | inhibition at 6 µM (NCI-H1975 [6]): 97.3% | inhibition at 2 µM (NCI-H1975 [7]): 42.5% | inhibition at 6 µM (A549 [8]): 65.6% | inhibition at 12 µM (NCI-H1975 [9]): 96.7%
